Results taken from US12180194B2, “Multi-aziridine compound” (Covestro (Netherlands) B.V., priority 2018, dated 2024).

Tests used:
Rtkn-GFP = assay: ToxTracker genotoxicity assay, Rtkn-GFP reporter induction; conditions: for Genotoxicity test, With S9 rat liver extract, Rtkn, 10 / Genotoxicity test, Without S9 rat liver extract, Rtkn, 10: GFP induction vs vehicle at 10% cytotoxicity; for Genotoxicity test, With S9 rat liver extract, Rtkn, 10 / Genotoxicity test, With S9 rat liver extract, Rtkn, 25 / Genotoxicity test, With S9 rat liver extract, Rtkn, 50: 3 h exposure with S9, 24 h recovery; for Genotoxicity test, Without S9 rat liver extract, Rtkn, 10 / Genotoxicity test, Without S9 rat liver extract, Rtkn, 25 / Genotoxicity test, Without S9 rat liver extract, Rtkn, 50: 24 h exposure, no S9; for Genotoxicity test, With S9 rat liver extract, Rtkn, 25 / Genotoxicity test, Without S9 rat liver extract, Rtkn, 25: GFP induction vs vehicle at 25% cytotoxicity; for Genotoxicity test, With S9 rat liver extract, Rtkn, 50 / Genotoxicity test, Without S9 rat liver extract, Rtkn, 50: GFP induction vs vehicle at 50% cytotoxicity
Bscl2-GFP = assay: ToxTracker genotoxicity assay, Bscl2-GFP reporter induction; conditions: for Genotoxicity test, With S9 rat liver extract, Bscl 2, 10 / Genotoxicity test, Without S9 rat liver extract, Bscl 2, 10: GFP induction vs vehicle at 10% cytotoxicity; for Genotoxicity test, With S9 rat liver extract, Bscl 2, 10 / Genotoxicity test, With S9 rat liver extract, Bscl 2, 25 / Genotoxicity test, With S9 rat liver extract, Bscl 2, 50: 3 h exposure with S9, 24 h recovery; for Genotoxicity test, Without S9 rat liver extract, Bscl 2, 10 / Genotoxicity test, Without S9 rat liver extract, Bscl 2, 25 / Genotoxicity test, Without S9 rat liver extract, Bscl 2, 50: 24 h exposure, no S9; for Genotoxicity test, With S9 rat liver extract, Bscl 2, 25 / Genotoxicity test, Without S9 rat liver extract, Bscl 2, 25: GFP induction vs vehicle at 25% cytotoxicity; for Genotoxicity test, With S9 rat liver extract, Bscl 2, 50 / Genotoxicity test, Without S9 rat liver extract, Bscl 2, 50: GFP induction vs vehicle at 50% cytotoxicity

Row | SMILES | Genotoxicity test, With S9 rat liver extract, Rtkn, 10 (Rtkn-GFP) [fold] | Genotoxicity test, Without S9 rat liver extract, Rtkn, 10 (Rtkn-GFP) [fold] | Genotoxicity test, With S9 rat liver extract, Rtkn, 25 (Rtkn-GFP) [fold] | Genotoxicity test, Without S9 rat liver extract, Rtkn, 25 (Rtkn-GFP) [fold] | Genotoxicity test, With S9 rat liver extract, Rtkn, 50 (Rtkn-GFP) [fold] | Genotoxicity test, Without S9 rat liver extract, Rtkn, 50 (Rtkn-GFP) [fold] | Genotoxicity test, With S9 rat liver extract, Bscl 2, 10 (Bscl2-GFP) [fold] | Genotoxicity test, Without S9 rat liver extract, Bscl 2, 10 (Bscl2-GFP) [fold] | Genotoxicity test, With S9 rat liver extract, Bscl 2, 25 (Bscl2-GFP) [fold] | Genotoxicity test, Without S9 rat liver extract, Bscl 2, 25 (Bscl2-GFP) [fold] | Genotoxicity test, With S9 rat liver extract, Bscl 2, 50 (Bscl2-GFP) [fold] | Genotoxicity test, Without S9 rat liver extract, Bscl 2, 50 (Bscl2-GFP) [fold]
1 | CC(CN1CC1C)OC(=O)NCCCCCCNC(=O)OC(C)CN1CC1C (stereo not drawn) [Comp. Ex. 6, reference compound] | 2.2 | 2.1 | 3.4 | 3.1 | 2.1 | 3.1 | 1.4 | 1.4 | 2.1 | 2.0 | 2.3 | 2.0
2 | CC(CN1CC1C)OC(=O)NCC1(C)CC(NC(=O)OC(C)CN2CC2C)CC(C)(C)C1 (stereo not drawn) [Comp. Ex. 7, reference compound] | 1.6 | 1.6 | 2.7 | 2.5 | 3.5 | 3.8 | 1.2 | 1.2 | 1.6 | 1.6 | 1.7 | 2.4
3 | CC(CN1CC1C)OC(=O)NC(C)(C)c1cccc(C(C)(C)NC(=O)OC(C)CN2CC2C)c1 (stereo not drawn) [Comp. Ex. 8, reference compound] | 1.3 | 1.4 | 4.2 | 2.3 | 4.9 | 4.8 | 1.1 | 1.2 | 2.1 | 1.7 | 2.1 | 2.3
4 | CC(CN1CC1C)OC(=O)NC1CCC(CC2CCC(NC(=O)OC(C)CN3CC3C)CC2)CC1 (stereo not drawn) [Comp. Ex. 9, reference compound] | 1.6 | 1.5 | 2.6 | 2.2 | 3.7 | 3.3 | 1.2 | 1.2 | 1.6 | 1.6 | 2.0 | 2.2
5 | CCCCOCC(CN1CC1C)OC(=O)NCCCCCCNC(=O)OC(COCCCC)CN1CC1C (stereo not drawn) [Comp. Ex. 10, reference compound] | 1.5 | 1.2 | 2.3 | 1.9 | 2.2 | 1.9 | 1.3 | 1.3 | 1.5 | 1.5 | 1.5 | 1.6
6 | CCCCOCC(CN1CC1C)OC(=O)Nc1ccc(C)c(NC(=O)OC(COCCCC)CN2CC2C)c1 (stereo not drawn) [Comp. Ex. 11, reference compound] | 1.2 | 1.3 | 2.1 | 2.1 | 2.5 | 2.3 | 1.3 | 1.2 | 1.7 | 1.6 | 1.6 | 1.9
7 | CC(CN1CC1C)OC(=O)NCCCCCCn1c(=O)n(CCCCCCNC(=O)OC(C)CN2CC2C)c(=O)n(CCCCCCNC(=O)OC(C)CN2CC2C)c1=O (stereo not drawn) [Ex. 1] | 1.2 | 1.2 | 1.1 | 1.2 | 0.9 | 1.4 | – | – | – | – | – | –
8 | CC(CN1CC1C)OC(=O)NCCCCCC/N=c1\oc(=O)n(CCCCCCNC(=O)OC(C)CN2CC2C)c(=O)n1CCCCCCNC(=O)OC(C)CN1CC1C (stereo not drawn) [Ex. 2] | 1.1 | 1.1 | – | 1.0 | – | 0.9 | 1.0 | 1.1 | – | 1.1 | – | 0.9
9 | CCC(CN1CC1C)OC(=O)NCCCCCCn1c(=O)n(CCCCCCNC(=O)OC(CC)CN2CC2C)c(=O)n(CCCCCCNC(=O)OC(CC)CN2CC2C)c1=O (stereo not drawn) [Ex. 7] | 1.1 | 1.1 | 1.3 | 1.3 | 1.5 | – | 1.1 | 1.1 | 1.3 | 1.1 | 1.5 | –
10 | CC(OC(=O)NCCCCCCn1c(=O)n(CCCCCCNC(=O)OC(C)C(C)N2CC2C)c(=O)n(CCCCCCNC(=O)OC(C)C(C)N2CC2C)c1=O)C(C)N1CC1C (stereo not drawn) [Ex. 8] | 1.3 | 1.2 | 1.5 | 1.4 | 1.3 | 1.4 | – | – | – | – | – | –
